We go through 20 compounds from patent publication US12194080B2, “Methods for identification, assessment, prevention, and treatment of metabolic disorders using PM20D1 and N-lipidated amino acids” (Dana-Farber Cancer Institute, Inc., priority 2015, dated 2025).

SMILES strings stand for the structures.

For experiment [1], the system named is primary inguinal fat cells, primary BAT cells, C2C12 cells, and U2OS cells. As to the kind of experiment: Uncoupled respiration cellular assays (variety of cell types). The note with it: N-acyl amino acids at 10-100 uM. It counts as cell-based. How it is done:
(§1) Cellular oxygen consumption rates were determined using an XF24 Extracellular Flux Analyzer (Seahorse Biosciences). Oligomycin was purchased from EMD Millipore, and FCCP and rotenone were purchased from Sigma. C2C12 or U2OS cells were seeded at 30,000 or 50,000 cells/well, respectively in an XF24 cell culture microplate (V7-PS, Seahorse Bioscience) and analyzed the following day. Primary iWAT or BAT adipocytes were seeded at 15,000 cells/well, differentiation was induced the following day as described, and the cells were analyzed on day 5. On the day of analysis, the cells were washed once with Seahorse respiration buffer (8.3 g/1 DMEM, 1.8 g/l NaCl, 1 mM pyruvate, 20 mM glucose, pen/strep), placed in 0.5 ml Seahorse respiration buffer, and incubated in a CO2-free incubator for 1 hr. Port injection solutions were prepared as follows (final concentrations in assay in parentheses): 10 μM oligomycin (1 μM final), […] amino acid (50 μM final), 2 μM FCCP (0.2 μM final), and 30 μM rotenone (3 μM final). The Seahorse program was run as follows: basal measurement, 3 cycles; inject port A (oligomycin), 3 cycles; inject port B (compounds), 8 cycles; inject port C (FCCP), 3 cycles; inject port D (rotenone), 3 cycles. Each cycle consisted of mix 4 min, wait 0 min, and measure 2 min. For data expressed as a percentage of oligomycin-treated basal, the respiration at cycle 6 was normalized to 100%, and the maximum respiration at any time point between cycles 7 and 15 inclusive was used.

The test system of experiment [2] is C2C12 cells. As to the kind of experiment: Cellular oxygen consumption rate (uncoupled respiration), C2C12 cells. It counts as cell-based, mouse. The note with it: 50 μM, after oligomycin 1 μM. The method, then:
C2C12, U2O5, and 293A cells were cultured in DMEM with 10% FBS and pen/strep. Primary inguinal (iWAT) and brown (BAT) adipocytes were obtained as follows. The stromal-vascular fraction of inguinal (iWAT) pad from 4-12 week old male mice was dissected, minced, and digested for 45 min. at 37° C. in PBS containing 10 mM CaCl2, 2.4 U/ml dispase II (Roche), and 1.5 U/ml collagenase D (Roche). The stromal-vascular fraction of brown fat (BAT) pads from newborn (P1-P14) pups was dissected, minced, and digested for 45 min at 37° C. in PBS containing 1.3 mM CaCl2, 120 mM NaCl, 5 mM KCl, 5 mM glucose, 100 mM HEPES, 4% BSA, and 1.5 mg/ml collagenase B (Roche). Digested tissue was diluted with adipocyte culture media (DMEM/F-12, GlutaMAX™ supplement, Life Technologies, with 10% FBS and pen/strep) and centrifuged (600×g for 10 min.). The pellet was resuspended in 10 ml adipocyte culture media, strained through a 40 μm filter, and plated. Differentiation was induced by application of an adipogenic cocktail containing 5 μg/ml insulin (Sigma), 5 μM dexamethasone (Sigma), 250 μM isobutylmethylxanthine (Sigma), and 1 μM rosiglitazone (Cayman) for 2 days. Two days after induction, cells were maintained in adipocyte culture media containing 5 μg/ml insulin and 1 μM rosiglitazone.
as §1

Experiment [3] concerns the target T1, mouse PM20D1 (Mus musculus, UniProt Q8C165).
T1 construct: Full-length mouse Pm20d1 cDNA (GE Dharmacon) was subcloned with an in-frame C-terminal 6× His and FLAG® tag; made in house; host or cells: 293A (HEK293A) cells stably infected with retrovirus
T1 sequence (Q8C165 25-503): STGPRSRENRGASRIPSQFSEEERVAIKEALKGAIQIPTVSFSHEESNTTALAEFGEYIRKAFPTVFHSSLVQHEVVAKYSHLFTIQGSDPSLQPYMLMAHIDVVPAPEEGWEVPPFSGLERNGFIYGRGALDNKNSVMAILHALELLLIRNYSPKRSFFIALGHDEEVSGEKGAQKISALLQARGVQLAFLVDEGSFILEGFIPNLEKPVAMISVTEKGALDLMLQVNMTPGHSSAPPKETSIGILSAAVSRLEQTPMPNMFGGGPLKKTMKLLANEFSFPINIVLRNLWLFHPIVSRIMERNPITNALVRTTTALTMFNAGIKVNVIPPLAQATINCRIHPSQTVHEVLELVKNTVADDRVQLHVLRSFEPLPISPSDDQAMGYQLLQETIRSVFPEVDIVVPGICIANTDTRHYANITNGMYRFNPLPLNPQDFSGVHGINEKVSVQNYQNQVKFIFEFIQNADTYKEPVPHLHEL
As to the kind of experiment: In vitro PM20D1-catalyzed N-acyl amino acid hydrolysis. It counts as biochemical. Particulars: N-acyl amide substrate 100 μM. The method, then:
(§2) The concentrated media was centrifuged to remove debris (600×g, 10 min, 4° C.) and the supernatant containing PM20D1-flag was decanted into a new tube. PM20D1-Flag was immunoaffinity purified overnight at 4° C. from the concentrated media using magnetic Flag-M2 beads (Sigma Aldrich). The beads were collected, washed three times in PBS, eluted with 3× Flag peptide ([…] in PBS, Sigma Aldrich), aliquoted, and stored at −80° C. For the purification of human PM20D1-flag, hPM20D1-flag plasmid (Origene) was transiently transfected into 293A cells. After two days, the media was changed, harvested 24 h later, concentrated, and purified exactly as described above.
(§3) In vitro PM20D1-catalyzed synthesis of N-acyl amino acids was measured by incubating purified PM20D1 protein with oleate (1.5 mM) and phenylalanine (0.1 mM) in PBS (to 100 μl final volume) at 37° C. for 1.5 hrs. In vitro PM20D1-catalyzed N-acyl amino acid hydrolysis was measured by incubating purified PM20D1 protein with the indicated N-acyl amino acid (0.1 mM) in PBS (to 100 μl final volume) at 37° C. for 1.5 hrs. Reactions were terminated by placing the vials at −80° C. and the products generated in vitro were analyzed by mass spectroscopy (MS).
(§4) Briefly, frozen serum (30 μl) for polar metabolomic analyses were extracted in 160 μl of 1:1 acetonitrile/methanol with inclusion of internal standard D3, ^15N-serine (1 nmol). Activity assays (100 μl) were extracted in 400 μl 1:1 acetonitrile/methanol. Following 30 s of thorough vortexing and 1 min of bath sonication, the polar metabolite fraction (supernatant) was isolated by centrifugation at 13,000×g for 10 min. Ten μl of this supernatant was analyzed by SRM-based targeted LC-MS/MS, or untargeted LC-MS.
(§5) For separation of polar metabolites, normal-phase chromatography was performed with a […] column (50 mm×4.60 mm, Phenomenex). Mobile phases were as follows: Buffer A, acetonitrile; Buffer B, 95:5 water/acetonitrile with 0.1% formic acid or 0.2% ammonium hydroxide with 50 mM ammonium acetate for positive and negative ionization mode, respectively. The flow rate for each run started at 0.2 ml/min for 2 min, followed by a gradient starting at 0% B and increasing linearly to 100% B over the course of 15 min with a flow rate of 0.7 ml/min, followed by an isocratic gradient of 100% B for 10 min at 0.7 ml/min before equilibrating for 5 min at 0% B with a flow rate of 0.7 ml/min. MS analysis was performed with an electrospray ionization (ESI) source on an Agilent 6430 QQQ LC—MS/MS. The capillary voltage was set to 3.5 kV, and the fragmentor voltage was set to 100 V. The drying gas temperature was 325° C., the drying gas flow rate was 10 l/min, and the nebulizer pressure was 45 psi. For polar targeted and untargeted metabolomic analysis, representative metabolites were quantified by SRM of the transition from precursor to product ions (corresponding to amino acid fragment) at associated collision energies. Several representative fragmentation ions are as follows: C18:1-Ala, 352>88; C18:1-Gly, 338>74; C18:1-Phe, 428>164; C18:1-Leu/Ile, 394>130; C20:4-Phe, 450>164; C20:4-Leu/Ile, 416>130. Untargeted LC-MS was performed by scanning a mass range of m/z 50-1200, and data were exported as mzdata files and uploaded to XCMSOnline (xcmsserver.nutr.berkeley.edu) to identify metabolites that were differentially changed. For targeted metabolomics analysis, metabolites were quantified by integrating the area under the peak and were normalized to internal standard values corresponding to 1 nmol D3, ^15N-serine.

In experiment [4] the target is T1, mouse PM20D1. Nature of the experiment: In vitro PM20D1-catalyzed synthesis of N-acyl amino acids. It counts as biochemical. The note with it: for substrate of the PM20D1 synthase reaction: head group 100 μM, oleate or arachidonate 1.5 mM, C18:1-CoA 0.7 mM. The method, then:
as §2, §3, §4, §5

Turning to `CCCCCC[C@@H](O)C/C=C\CCCCCCCC(=O)N[C@@H](C)c1ccccc1` [(S)-alpha-methylbenzyl ricinoleamide, reference compound], in experiment [1], the “uncoupled respiration in cells” value is “inactive”.

On to `CCCCCCCC/C=C\CCCCCCCC(=O)N[C@@H](CCC(N)=O)C(=O)O` [C18:1-Gln, Oleoyl-L-glutamine], for which, in experiment [2], the “uncoupling activity (uncoupled respiration)” value (shortened to “uncoupling activity”) is recorded as “possessed the uncoupling activity”. Take `CCCCCCCC/C=C\CCCCCCCC(=O)NCC(=O)O` [C18:1-Gly]: the “substrate of the PM20D1 hydrolysis reaction” value in experiment [3] was “substrates”. For `CCCCCCCC/C=C\CCCCCCCC(=O)N[C@@H](CCCCN)C(=O)O` [C18:1-Lys, Oleoyl-L-lysine], the “uncoupling activity” value in experiment [2] is listed as “not”. As to `CCCCCCCC/C=C\CCCCCCCC(=O)N[C@@H](CO)C(=O)O` [C18:1-Ser], the “substrate of the PM20D1 hydrolysis reaction” value in experiment [3] is given as “substrates”.

In the case of `CCCCC/C=C\C/C=C\C/C=C\C/C=C\CCCC(=O)NC` [N-arachidonoyl N-methyl amide, N-methyl N-arachidonoyl amide, reference compound], the “uncoupling activity” value in experiment [2] is “did not stimulate uncoupled respiration”. The “uncoupled respiration in cells” value in experiment [1] is “inactive”.

On to `CCCCC/C=C\C/C=C\C/C=C\C/C=C\CCCC(=O)NCCc1ccc(O)c(O)c1` [N-arachidonoyl dopamine, reference compound], for which the “uncoupling activity” value in experiment [2] is reported as “did not stimulate uncoupled respiration”. In addition, the “uncoupled respiration in cells” value in experiment [1] is “inactive”. The corresponding values for `CCCCC/C=C\C/C=C\C/C=C\C/C=C\CCCC(=O)NCCCC(=O)O` [N-arachidonoyl gamma amino butyric acid] are “stimulate uncoupled respiration” and “increased uncoupled respiration”. Turning to `CCCCC/C=C\C/C=C\C/C=C\C/C=C\CCCC(=O)N[C@@H](CO)C(=O)O` [N-arachidonoyl serine], the “uncoupled respiration in cells” value in experiment [1] is “increased uncoupled respiration”. On to `CCCCC/C=C\C/C=C\C/C=C\C/C=C\CCCC(=O)NCCS(=O)(=O)O` [N-arachidonoyl taurine, reference compound], for which, in experiment [2], the “uncoupling activity” value was “did not stimulate uncoupled respiration”. Further, in experiment [1], the “uncoupled respiration in cells” value is “inactive”.

For `CCCCC/C=C\C/C=C\CCCCCCCC(=O)N[C@@H](Cc1ccccc1)C(=O)O` [N-linoleoyl phenylalanine], in experiment [1], the “uncoupled respiration in cells” value is on record as “increased uncoupled respiration”. Regarding `CCCCCCCC/C=C\CCCCCCCC(=O)N[C@@H](Cc1ccccc1)C(N)=O` [N-oleoyl phenylalanine amide, (S)-N-(1-amino-1-oxo-3-phenylpropan-2-yl)oleamide], in experiment [2], the “uncoupling activity” value is recorded as “completely abrogated uncoupling activity”. Also, the “uncoupled respiration in cells” value in experiment [1] was “inactive”.

As to `CCCCCCCC/C=C\CCCCCCCC(=O)N[C@@H](Cc1ccccc1)C(=O)OC` [N-oleoyl phenylalanine methyl ester, Methyl oleoyl-L-phenylalaninate], the “uncoupling activity” value in experiment [2] is “completely abrogated uncoupling activity”. In experiment [1], the “uncoupled respiration in cells” value is “inactive”. With `CCCCCCCCCCCCCCCC(=O)N[C@@H](Cc1ccccc1)C(=O)OC` [N-palmitoyl phenylalanine methyl ester], the “uncoupled respiration in cells” value in experiment [1] was “inactive”.

Turning to `N[C@@H](Cc1ccccc1)C(=O)O` [Phe, phenylalanine], the “substrate of the PM20D1 synthase reaction” value in experiment [4] is “most efficiently converted to its corresponding N-acyl amino acid product”. As to `CC(=O)[O-].CC(=O)[O-].[Zn+2]` [Zn(OAc)2], the “effect on PM20D1 reaction rate” value in experiment [4] (2 mM added to the reaction in PBS) was “does not augment reaction rate and may decrease the rate”. Take `NCCO` [ethanolamine]: the “substrate of the PM20D1 synthase reaction” value in experiment [4] is given as “not substrates for the synthase reaction”. The same measure, in the same setting: the entry for `N[C@@H](CCC(=O)O)C(=O)O` [glutamate] is “not substrates for the synthase reaction”. As for `CCCCC/C=C\C/C=C\C/C=C\C/C=C\CCCC(=O)N[C@H](C)CO` [methanandamide, R(+)-methanandamide, reference compound], the “uncoupling activity” value in experiment [2] is given as “did not stimulate uncoupled respiration”. In addition, the “uncoupled respiration in cells” value in experiment [1] was “inactive”.

Turning to `CCCCC/C=C\C/C=C\C/C=C\C/C=C\CCCCOC(CO)CO` [noladin ether, reference compound], the “uncoupled respiration in cells” value in experiment [1] is “inactive”.
